Source: patent US20240360134A1, “PYRAZOLOPYRIMIDINES AND THEIR USES AS PDGFR INHIBITORS” (priority 2021, published 2024)
Like-named read-outs stand apart in the source and are kept apart here.

Key:
PDGFRβ = PDGFRβ (Rattus norvegicus (Rat), UniProt Q05030); assay: PDGFRβ Cellular Assay (PDGFRb P-Y751 HTRF, PDGF-BB stimulated A10 cells); type: cell-based
Procedure, shortened: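 Rat A10 cells plated overnight were treated with compound for 3 h, stimulated with rat PDGF-BB (working stock 100 ng/mL in 10% FBS medium) for 10 min, then lysed.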

[1] = molecular target: Tb-labeled inactive PDGFRβ (Homo sapiens (Human), UniProt P09619); assay: biochemical; type: binding
Tb-labeled inactive PDGFRβ, sequence (P09619 whole entry, looked up): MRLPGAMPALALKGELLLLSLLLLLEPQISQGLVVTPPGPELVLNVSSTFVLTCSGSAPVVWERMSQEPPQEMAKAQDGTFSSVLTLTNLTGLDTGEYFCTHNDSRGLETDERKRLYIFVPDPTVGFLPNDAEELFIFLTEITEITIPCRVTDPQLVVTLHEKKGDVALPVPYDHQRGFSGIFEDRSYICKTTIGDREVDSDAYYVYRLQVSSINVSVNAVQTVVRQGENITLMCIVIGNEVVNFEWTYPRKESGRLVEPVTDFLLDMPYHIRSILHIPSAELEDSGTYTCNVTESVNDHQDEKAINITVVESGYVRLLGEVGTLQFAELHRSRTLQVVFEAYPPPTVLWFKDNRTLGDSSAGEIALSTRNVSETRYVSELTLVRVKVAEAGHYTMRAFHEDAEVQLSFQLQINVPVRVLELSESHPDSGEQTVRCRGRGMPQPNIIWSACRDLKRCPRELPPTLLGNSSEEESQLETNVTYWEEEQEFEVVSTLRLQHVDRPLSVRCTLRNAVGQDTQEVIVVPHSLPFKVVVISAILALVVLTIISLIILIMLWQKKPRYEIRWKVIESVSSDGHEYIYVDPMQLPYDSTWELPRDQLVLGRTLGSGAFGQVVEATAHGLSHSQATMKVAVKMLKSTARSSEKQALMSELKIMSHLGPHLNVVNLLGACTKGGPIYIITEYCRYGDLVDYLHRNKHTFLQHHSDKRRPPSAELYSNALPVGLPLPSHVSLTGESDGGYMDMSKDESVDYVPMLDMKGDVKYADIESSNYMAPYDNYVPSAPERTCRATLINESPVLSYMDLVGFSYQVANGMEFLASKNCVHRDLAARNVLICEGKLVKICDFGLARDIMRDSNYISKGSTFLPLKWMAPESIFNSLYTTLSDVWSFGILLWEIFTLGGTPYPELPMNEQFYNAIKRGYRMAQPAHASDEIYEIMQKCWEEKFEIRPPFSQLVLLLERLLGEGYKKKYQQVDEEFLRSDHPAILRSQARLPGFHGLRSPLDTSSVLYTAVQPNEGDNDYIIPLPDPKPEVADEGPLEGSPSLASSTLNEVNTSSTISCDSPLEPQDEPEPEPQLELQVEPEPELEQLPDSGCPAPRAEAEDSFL

[2] = molecular target: His6-TEV-PDGFRβ (557-1016) (Homo sapiens (Human), UniProt P09619); assay: PDGFRβ HTRF Assay; type: biochemical
His6-TEV-PDGFRβ (557-1016), sequence (P09619 whole entry, looked up): as above

VEGFR2, unphosphorylated = VEGFR2, unphosphorylated (Homo sapiens (Human), UniProt P35968); assay: VEGFR ADP GLO assay; type: biochemical; details: 5 nM VEGFR2, 1.2 mM ATP, 1 mg/mL Srctide, 180 min
VEGFR2, unphosphorylated, sequence (P35968 whole entry, looked up): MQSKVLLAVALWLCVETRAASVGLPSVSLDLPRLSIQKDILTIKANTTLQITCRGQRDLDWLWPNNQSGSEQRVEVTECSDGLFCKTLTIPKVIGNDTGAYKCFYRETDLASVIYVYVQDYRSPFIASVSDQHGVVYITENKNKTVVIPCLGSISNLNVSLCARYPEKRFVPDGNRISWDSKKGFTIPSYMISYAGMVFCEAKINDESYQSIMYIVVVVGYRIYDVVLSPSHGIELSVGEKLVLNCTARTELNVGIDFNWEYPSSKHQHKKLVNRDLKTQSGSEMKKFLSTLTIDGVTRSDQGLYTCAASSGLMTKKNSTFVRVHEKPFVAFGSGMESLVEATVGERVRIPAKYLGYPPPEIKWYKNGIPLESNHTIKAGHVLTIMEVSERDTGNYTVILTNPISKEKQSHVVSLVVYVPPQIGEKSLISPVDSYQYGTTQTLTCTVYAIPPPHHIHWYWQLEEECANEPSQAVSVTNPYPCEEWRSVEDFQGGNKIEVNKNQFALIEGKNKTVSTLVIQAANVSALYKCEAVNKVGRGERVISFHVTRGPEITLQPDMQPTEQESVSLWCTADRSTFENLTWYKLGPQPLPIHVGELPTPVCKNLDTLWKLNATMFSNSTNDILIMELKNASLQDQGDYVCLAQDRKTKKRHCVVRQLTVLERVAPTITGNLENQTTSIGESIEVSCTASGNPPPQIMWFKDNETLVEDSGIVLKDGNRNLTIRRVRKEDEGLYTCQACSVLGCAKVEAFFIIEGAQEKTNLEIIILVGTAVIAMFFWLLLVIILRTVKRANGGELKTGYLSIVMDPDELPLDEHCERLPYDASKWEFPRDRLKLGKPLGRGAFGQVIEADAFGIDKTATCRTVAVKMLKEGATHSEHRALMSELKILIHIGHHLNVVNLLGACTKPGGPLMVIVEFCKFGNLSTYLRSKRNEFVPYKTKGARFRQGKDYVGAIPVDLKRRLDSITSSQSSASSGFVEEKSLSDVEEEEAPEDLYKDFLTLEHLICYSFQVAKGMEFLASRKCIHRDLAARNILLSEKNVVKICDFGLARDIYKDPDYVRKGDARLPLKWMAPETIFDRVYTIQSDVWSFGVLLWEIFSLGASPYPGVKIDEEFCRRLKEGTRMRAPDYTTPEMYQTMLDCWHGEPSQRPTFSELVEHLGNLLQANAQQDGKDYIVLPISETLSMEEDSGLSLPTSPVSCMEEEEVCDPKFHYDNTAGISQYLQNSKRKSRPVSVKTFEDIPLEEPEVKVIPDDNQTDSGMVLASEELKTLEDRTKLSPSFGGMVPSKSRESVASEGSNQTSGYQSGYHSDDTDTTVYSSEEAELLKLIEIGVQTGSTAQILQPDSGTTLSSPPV
Procedure, shortened: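 Luminescent ADP detection after a 180-min room-temperature reaction of srctide plus ATP (2 mg/mL and 2.4 mM in 2× mix) in pH 7.5 HEPES buffer with DTT, Pluronic and ovalbumin. Compounds, 11 points from 10 µM, first pre-incubated 30 min with enzyme (2× mix 10 nM). IC50s fitted after scaling between DMSO and 1 µM TAK-593 controls.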

[3] = A10 cells, 3 hours compound, 15 ng/mL PDGFbb for 10 minutes, read-out: PDGFR Cellular IC50
[4] = 800 μM ATP, 0.5 μM TK-substrate biotin peptide, 30 min pre-incubation, 3 hours reaction, read-out: PDGFR HTRF IC50

PDGFRβ, sequence (Q05030 whole entry, looked up): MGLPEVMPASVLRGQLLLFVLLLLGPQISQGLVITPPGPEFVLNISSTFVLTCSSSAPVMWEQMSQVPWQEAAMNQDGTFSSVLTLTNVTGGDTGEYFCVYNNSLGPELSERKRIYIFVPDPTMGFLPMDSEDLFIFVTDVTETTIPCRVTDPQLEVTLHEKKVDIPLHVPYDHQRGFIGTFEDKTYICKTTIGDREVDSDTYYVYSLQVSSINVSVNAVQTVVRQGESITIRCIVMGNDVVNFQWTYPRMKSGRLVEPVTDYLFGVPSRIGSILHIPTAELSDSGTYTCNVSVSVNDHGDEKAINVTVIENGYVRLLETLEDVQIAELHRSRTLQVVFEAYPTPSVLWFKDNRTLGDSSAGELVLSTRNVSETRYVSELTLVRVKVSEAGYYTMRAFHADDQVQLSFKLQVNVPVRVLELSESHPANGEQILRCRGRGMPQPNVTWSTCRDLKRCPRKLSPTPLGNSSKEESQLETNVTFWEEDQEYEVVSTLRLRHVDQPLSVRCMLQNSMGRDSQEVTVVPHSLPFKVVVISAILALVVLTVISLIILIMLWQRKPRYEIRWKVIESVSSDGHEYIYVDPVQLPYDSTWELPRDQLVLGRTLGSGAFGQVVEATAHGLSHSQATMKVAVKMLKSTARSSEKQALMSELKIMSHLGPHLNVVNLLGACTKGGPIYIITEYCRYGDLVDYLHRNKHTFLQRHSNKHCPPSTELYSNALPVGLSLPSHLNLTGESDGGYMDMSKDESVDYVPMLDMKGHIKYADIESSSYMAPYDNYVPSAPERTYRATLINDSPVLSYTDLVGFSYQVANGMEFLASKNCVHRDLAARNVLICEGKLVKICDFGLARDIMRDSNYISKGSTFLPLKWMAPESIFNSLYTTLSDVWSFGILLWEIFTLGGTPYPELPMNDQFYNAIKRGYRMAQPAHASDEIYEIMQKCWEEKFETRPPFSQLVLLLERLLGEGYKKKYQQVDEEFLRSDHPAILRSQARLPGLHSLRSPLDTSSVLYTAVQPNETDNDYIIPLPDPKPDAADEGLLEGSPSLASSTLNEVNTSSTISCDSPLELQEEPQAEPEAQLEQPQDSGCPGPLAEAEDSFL

| Molecule | IC50 (PDGFRβ; [3]) [nM] | IC50 ([1]; read-out: PDGFR Lantha IC50) [nM] | IC50 [2, 4] [nM] | IC50 (VEGFR2, unphosphorylated) [µM] | IC50 (PDGFRβ) [nM] | IC50 [1] [nM] | IC50 [2] [nM] |
| --- | --- | --- | --- | --- | --- | --- | --- |
| COCCN(CCNC(=O)c1cnc(C)c(Nc2nn(C)c3nc(Nc4cnn(C)c4)ncc23)c1)C1CCCC1 [Example 95, N-(2-(cyclopentyl(2-methoxyethyl)amino)ethyl)-6-methyl-5-((1-methyl-6-((1-methyl-1H-pyrazol-4-yl)amino)-1H-pyrazolo[3,4-d]pyrimidin-3-yl)amino)nicotinamide] | 9.9 | 3.4 | 0.53 | > 7.5 | – | – | – |
| Cc1ccc(C(=O)NCCN2CC(C)(C)C2)cc1Nc1nn(C)c2nc(Nc3cnn(C)c3)ncc12 [Example 64, N-(2-(3,3-dimethylazetidin-1-yl)ethyl)-4-methyl-3-((1-methyl-6-((1-methyl-1H-pyrazol-4-yl)amino)-1H-pyrazolo[3,4-d]pyrimidin-3-yl)amino)benzamide] | 8.9 | 2.1 | 0.26 | 1.03 | – | – | – |
| Cc1ncc(C(=O)NCCN2[C@H](C)CCC[C@@H]2C)cc1Nc1nn(C)c2cc(Nc3cnn(C)c3)ncc12 [Example 68, N-(2-((2S,6R)-2,6-dimethylpiperidin-1-yl)ethyl)-6-methyl-5-((1-methyl-6-((1-methyl-1H-pyrazol-4-yl)amino)-1H-pyrazolo[4,3-c]pyridin-3-yl)amino)nicotinamide] | – | – | – | > 7.5 | 112 | 33.9 | 1.98 |
| Cc1cc(C(=O)NCCN2CC3COCC3C2)sc1Nc1nn(C)c2nc(Nc3cnn(C)c3)ncc12 (centres unmarked) [Example 61, 4-methyl-5-((1-methyl-6-((1-methyl-1H-pyrazol-4-yl)amino) 1H-pyrazolo[3,4-d]pyrimidin-3-yl)amino)-N-(2-(tetrahydro-1H-furo[3,4-c]pyrrol-5(3H)-yl)ethyl)thiophene-2-carboxamide] | 86.8 | 10.2 | 0.61 | 3.86 | – | – | – |
| COCCn1cc(Nc2ncc3c(Nc4cc(NC(=O)CN5CCC[C@@H]5C)cnc4C)nn(C)c3n2)cn1 [Example 128, (S)—N-(5-((6-((1-(2-methoxyethyl)-1H-pyrazol-4-yl)amino)-1-methyl-1H-pyrazolo[3,4-d]pyrimidin-3-yl)amino)-6-methylpyridin-3-yl)-2-(2-methylpyrrolidin-1-yl)acetamide] | 4.5 | 3.6 | 0.47 | > 7.5 | – | – | – |
| 2-(3,3-dimethylazetidin-1-yl)-N-(6-methyl-5-((1-methyl-6-((1-methyl-1H-imidazol-4-yl)amino)-1H-pyrazolo[3,4-d]pyrimidin-3-yl)amino)pyridin-3-yl)acetamide [Example 141] | 9.4 | 12.5 | 1.4 | > 7.5 | – | – | – |
| Cc1ncc(NC(=O)C2(C(=O)N3CCN(C)CC3)CC2)cc1Nc1nn(C)c2nc(Nc3cnn(C)c3)ncc12 [Example 116, N-(6-methyl-5-((1-methyl-6-((1-methyl-1H-pyrazol-4-yl)amino)-1H-pyrazolo[3,4-d]pyrimidin-3-yl)amino)pyridin-3-yl)-1-(4-methylpiperazine-1-carbonyl)cyclopropanecarboxamide] | 721 | 59.4 | 2.63 | > 7.5 | – | – | – |
| Cc1ccc(C(=O)NCCN2CCC(F)(F)CC2)cc1Nc1nn(C)c2nc(Nc3cnn(C)c3)ncc12 [Example 118, N-(2-(4,4-difluoropiperidin-1-yl)ethyl)-4-methyl-3-((1-methyl-6-((1-methyl-1H-pyrazol-4-yl)amino)-1H-pyrazolo[3,4-d]pyrimidin-3-yl)amino)benzamide] | 5.4 | 1.8 | 0.29 | 0.076 | – | – | – |
| Cc1ncc(C(=O)NCCN2CCCC2(C)C)cc1Nc1nn(C)c2nc(Nc3ccnc(N4CCOCC4)c3)ncc12 [Example 101, N-(2-(2,2-dimethylpyrrolidin-1-yl)ethyl)-6-methyl-5-((1-methyl-6-((2-morpholinopyridin-4-yl)amino)-1H-pyrazolo[3,4-d]pyrimidin-3-yl)amino)nicotinamide] | 15.5 | 2.2 | 0.38 | > 7.5 | – | – | – |
| Cc1ncc(C(=O)NCCN(CCCO)C2CCCC2)cc1Nc1nn(C)c2nc(Nc3cnn(C)c3)ncc12 [Example 96, N-(2-(cyclopentyl(3-hydroxypropyl)amino)ethyl)-6-methyl-5-((1-methyl-6-((1-methyl-1H-pyrazol-4-yl)amino)-1H-pyrazolo[3,4-d]pyrimidin-3-yl)amino)nicotinamide] | 139 | 2.8 | 0.43 | > 7.5 | – | – | – |
| Cc1ncc(C(=O)NCCN2CCC[C@@H]2C)cc1Nc1nn(C)c2nc(Nc3cnn(C)c3C)ncc12 [Example 155, (S)-5-((6-((1,5-dimethyl-1H-pyrazol-4-yl)amino)-1-methyl-1H-pyrazolo[3,4-d]pyrimidin-3-yl)amino)-6-methyl-N-(2-(2-methylpyrrolidin-1-yl)ethyl)nicotinamide] | 169 | 15.5 | 1.98 | > 7.5 | – | – | – |
| Cc1ncc(C(=O)NCCN2CCCC2(C)C)cc1Nc1nn(C)c2nc(Nc3cccc(C(C)(C)C(=O)O)c3)ncc12 [Example 47, 2-(3-((3-((5-((2-(2,2-dimethylpyrrolidin-1-yl)ethyl)carbamoyl)-2-methylpyridin-3-yl)amino)-1-methyl-1H-pyrazolo[3,4-d]pyrimidin-6-yl)amino)phenyl)-2-methylpropanoic acid] | > 3000 | 14.6 | 2.58 | 2.42 | – | – | – |
| COC(=O)C1(c2cccc(Nc3ncc4c(Nc5cc(C(=O)NCCN6CCCC6(C)C)cnc5C)nn(C)c4n3)c2)CC1 [Example 37, methyl 1-(3-((3-((5-((2-(2,2-dimethylpyrrolidin-1-yl)ethyl)carbamoyl)-2-methylpyridin-3-yl)amino)-1-methyl-1H-pyrazolo[3,4-d]pyrimidin-6-yl)amino)phenyl)cyclopropanecarboxylate] | 64.2 | 6.5 | 0.79 | 5.57 | – | – | – |
| COCCn1cc(Nc2ncc3c(Nc4cc(NC(=O)CN5CC(C)(C)C5)cnc4C)nn(C)c3n2)cn1 [Example 126, 2-(3,3-dimethylazetidin-1-yl)-N-(5-((6-((1-(2-methoxyethyl)-1H-pyrazol-4-yl)amino)-1-methyl-1H-pyrazolo[3,4-d]pyrimidin-3-yl)amino)-6-methylpyridin-3-yl)acetamide] | 6 | 2.1 | 0.33 | 6.88 | – | – | – |
| COCCN(CCNC(=O)c1cnc(C)c(Nc2nn(C)c3nc(Nc4cnn(C)c4)ncc23)c1)C1CCC1 [Example 84, N-(2-(cyclobutyl(2-methoxyethyl)amino)ethyl)-6-methyl-5-((1-methyl-6-((1-methyl-1H-pyrazol-4-yl)amino)-1H-pyrazolo[3,4-d]pyrimidin-3-yl)amino)nicotinamide] | 11.1 | 3.6 | 0.39 | > 7.5 | – | – | – |
| Cc1ncc(NC(=O)NCCN2CCCC2(C)C)cc1Nc1nn(C)c2nc(Nc3cncnc3)ncc12 [Example 16, 1-(2-(2,2-dimethylpyrrolidin-1-yl)ethyl)-3-(6-methyl-5-((1-methyl-6-(pyrimidin-5-ylamino)-1H-pyrazolo[3,4-d]pyrimidin-3-yl)amino)pyridin-3-yl)urea] | 1480 | 18.5 | 1.36 | > 7.5 | – | – | – |
| Cn1cc(Nc2ncc3c(Nc4cc(C(=O)NCCN5CCC6(CC6)C5)ccc4F)nn(C)c3n2)cn1 [Example 122, N-(2-(5-azaspiro[2.4]heptan-5-yl)ethyl)-4-fluoro-3-((1-methyl-6-((1-methyl-1H-pyrazol-4-yl)amino)-1H-pyrazolo[3,4-d]pyrimidin-3-yl)amino)benzamide] | 4.6 | 1.2 | 0.15 | > 7.5 | – | – | – |
| Cc1ncc(C(=O)NCCN2CCCCC23CC3)cc1Nc1nn(C)c2nc(Nc3cnn(C)c3)ncc12 [Example 150, N-(2-(4-azaspiro[2.5]octan-4-yl)ethyl)-6-methyl-5-((1-methyl-6-((1-methyl-1H-pyrazol-4-yl)amino)-1H-pyrazolo[3,4-d]pyrimidin-3-yl)amino)nicotinamide] | 4.3 | 1.2 | 0.3 | 1.55 | – | – | – |
| Cc1ncc(C(=O)NCCC2CCCCC2)cc1Nc1nn(C)c2nc(Nc3ccnc(N4CCN(CCO)CC4)c3)ncc12 [Example 110, N-(2-cyclohexylethyl)-5-((6-((2-(4-(2-hydroxyethyl)piperazin-1-yl)pyridin-4-yl)amino)-1-methyl-1H-pyrazolo[3,4-d]pyrimidin-3-yl)amino)-6-methylnicotinamide] | 108 | 3.9 | 0.77 | 0.143 | – | – | – |
| Cc1ncc(C(=O)NCCN2CCCC2(C)C)cc1Nc1nn(C)c2nc(Nc3ccc(N)nc3)ncc12 [Example 32, 5-((6-((6-aminopyridin-3-yl)amino)-1-methyl-1H-pyrazolo[3,4-d]pyrimidin-3-yl)amino)-N-(2-(2,2-dimethylpyrrolidin-1-yl)ethyl)-6-methylnicotinamide] | 110 | 5.7 | 0.54 | > 7.5 | – | – | – |
